Results from paper PMC6321291, “Synthesis, Biological Evaluation and Docking Studies of Benzoxazoles Derived from Thymoquinone” (Molecules, 2018).
Converted amounts (≈) assume the structure as drawn. Read-outs that look alike come from different tables or passages of the source.

Legend:
[1] = test system: SW620 (colorectal adenocarcinoma, metastatic); assay: MTT assay, SW620; assay type: cell-based; details: Homo sapiens, SW-620, 72 h
Description: (§1) The tested compounds were dissolved in DMSO in five, 10-fold dilutions (0.01–100 µM). The cell lines HeLa (cervical carcinoma), SW620 (colorectal adenocarcinoma, metastatic), HepG2 (hepatocellular carcinoma), CFPAC-1 (ductal pancreatic adenocarcinoma), and WI38 (human lung fibroblast cell line), were cultured as monolayers and maintained in Dulbecco’s modified Eagle medium (DMEM) supplemented with 10% fetal bovine serum (FBS), 2 mM L-glutamine, 100 U mL^−1 penicillin and 100 μg mL^−1 streptomycin in a humidified atmosphere with 5% CO2 at 37 °C.
(§2) The MTT assay was used for evaluation of effects of tested compounds on viability of carcinoma and control cell lines. About 5000 cells per well were seeded onto a series of standard 96-well plates on day 0. Test agents were then added and incubated for further 72 h. Working dilutions of tested compounds were freshly prepared in the growth medium, on the day of testing. The solvent (DMSO) was also tested for eventual inhibitory activity by adjusting its concentration to be the same as in the working concentrations (DMSO concentration never exceeded 0.1%). After 72 h of incubation, the cell growth rate was evaluated by performing the MTT assay: experimentally determined absorbance values were transformed into a cell percentage growth (PG) using the formulas proposed by NIH and described previously. This method directly relies on control cells number at the day of assay because it compares the growth of treated cells with the growth of untreated cells in control wells on the same plate, the results are therefore a percentile difference from the calculated expected value.
(§3) If, however, all of the tested concentrations produce PGs exceeding the respective reference level of effect (e.g., PG value of 50) for a given cell line, the highest tested concentration is assigned as the default value (in the screening data report that default value is preceded by a “>” sign). Each test point was performed in quadruplicate in three individual experiments. The results were statistically analyzed (Analysis of variance (ANOVA), Tukey post-hoc test at p < 0.05). Finally, the effects of the tested substances were evaluated by plotting the mean percentage growth for each cell type in comparison to control on dose response graphs.

[2] = test system: CFPAC-1 (ductal pancreatic adenocarcinoma); assay: MTT assay, CFPAC-1; assay type: cell-based; details: Homo sapiens, 72 h
Description: as §1, §2, §3

[3] = test system: HepG2 (hepatocellular carcinoma); assay: MTT assay, HepG2; assay type: cell-based; details: Homo sapiens, 72 h
Description: as §1, §2, §3

[4] = test system: HeLa (cervical carcinoma); assay: MTT assay, HeLa; assay type: cell-based; details: Homo sapiens, 72 h
Description: as §1, §2, §3

[5] = MTT assay, WI38 healthy control; assay type: cell-based; details: WI38 human lung fibroblast cells, WI38 healthy control human fibroblast cell line
Description: as §1, §2, §3

phospho (Ser 473) Akt [6] = assay: Western blot, pAkt in HeLa cells; assay type: cell-based, human; details: IC50 concentration
Description: (§4) Protein lysates were lysed in the buffer 50 mM Tris HCl (pH 8), 150 mM NaCl, 1% NP-40, 0.5% sodium deoxycholate, 0.1% SDS and protease and phosphatase inhibitor cocktail (Roche, Basel, Switzerland). A total of 50 μg of proteins were resolved on 10% SDS polyacrylamide gels by use of Mini-protean cell (Bio-Rad, Hercules, CA, USA). Membranes were incubated with primary antibodies against phospho (Tyr 1135) -IGF1 Receptor β (1:1000, rabbit mAb, Cell Signalling Technology, Danvers, MA, USA), phospho (Ser 473) Akt (1:1000, rabbit mAb, Cell Signalling Technology) and α tubulin (1:1000, mouse mAb, Sigma Aldrich) at 4 °C overnight. Secondary antibody linked to anti-mouse was used at 1:1000 (Dako, Santa Clara, CA, USA) and to anti-rabbit at 1:1000 (Dako). Signals were visualized by Western Lightening Chemiluminescence Reagent Plus Kit (Perkin Elmer, USA) on the ImageQuant LAS500 (GE Healthcare, Chicago, IL, USA). Signal intensities of particular bands were normalized with the intensity of the loading control α tubulin and compared in Quantity One software (Bio-Rad). The values are expressed as average value of three independent experiments ± standard error of the mean. Statistical analysis was performed in Microsoft Excel (Microsoft Corporation, Redmond, WA, USA) by using the ANOVA (p < 0.05).

phospho (Ser 473) Akt [7] = assay: Western blot, pAkt in HepG2 cells; assay type: cell-based, human; details: IC50 concentration
Description: as §4

[8] = test system: phospho (Tyr 1135) -IGF1 Receptor β; assay: Western blot, IGF1 Receptor β activated form in HeLa cells; assay type: cell-based, human; details: IC50 concentration, 24 and 48 h treatments
Description: as §4

[9] = test system: phospho (Tyr 1135) -IGF1 Receptor β; assay: Western blot, IGF1 Receptor β activated form in HepG2 cells; assay type: cell-based, human; details: IC50 concentration
Description: as §4

[10] = test system: Escherichia coli ATCC 25922; assay: Micro-dilution MIC assay, E. coli; assay type: cell-based; details: ATCC25922, 24 h at 37 °C
Description: (§5) Antimicrobial activity of compounds was evaluated in vitro on eight bacterial strains (Escherichia coli ATCC 25922 (ATCC = American Type Culture Collection, Manassas, VA, USA), Pseudomonas aeruginosa ATCC 9027, Proteus hauseri ATCC 13315, Klebsiella pneumoniae ATCC 10031, Staphylococcus aureus ATCC 6538, Bacillus subtilis ATCC 6633, Clostridium sporogenes ATCC 19404 and Micrococcus luteus ATCC 10240) and three fungi (Candida albicans ATCC 10231, Saccharomyces cerevisiae ATCC 9763 and Aspergillus brasiliensis ATCC 16404).
(§6) Micro-dilution assay was used for determination of tested compounds MIC. A serial dilution method in sterile 96-well microtitre plates was performed. Fresh Mueller–Hinton broth (for bacteria) and Sabouraud dextrose broth (for fungi) were used. In sterile physiological solution, suspensions containing 1.5 × 10^8 CFU mL^−1 for bacteria and 1.5 × 10^7 CFU mL^−1 for fungi were made (according to McFarland). One hundred microliters of broth were added to each well of the plate. Stock solutions of tested compounds were made in DMSO at concentration 10 mg mL^−1, and then 100 μL of the compound stock solution was added to each well of the first column. Double dilution was made in whole row for one tested compound, and repeated for all tested compounds in other rows. Amikacin served as positive control for bacteria, while nystatin served as positive control for fungi. The solvent (DMSO) was used as the negative control. Afterwards, each well was inoculated with 10 μL of microorganism suspension. After incubation, 24 h at 37 °C for bacteria and 48 h at 25 °C for fungi, results were read. The lowest concentration where no growth of microorganism was detected represented MIC.

[11] = test system: Pseudomonas aeruginosa ATCC 9027; assay: Micro-dilution MIC assay, P. aeruginosa; assay type: cell-based; details: ATCC9027, 24 h at 37 °C
Description: as §5, §6

[12] = test system: Proteus hauseri ATCC 13315; assay: Micro-dilution MIC assay, P. hauseri; assay type: cell-based; details: ATCC13315, 24 h at 37 °C
Description: as §5, §6

[13] = test system: Klebsiella pneumoniae ATCC 10031; assay: Micro-dilution MIC assay, K. pneumoniae; assay type: cell-based; details: ATCC10031, 24 h at 37 °C
Description: as §5, §6

[14] = test system: Staphylococcus aureus ATCC 6538; assay: Micro-dilution MIC assay, S. aureus; assay type: cell-based; details: ATCC6538, 24 h at 37 °C
Description: as §5, §6

[15] = test system: Bacillus subtilis ATCC 6633; assay: Micro-dilution MIC assay, B. subtilis; assay type: cell-based; details: ATCC6633, 24 h at 37 °C
Description: as §5, §6

[16] = test system: Clostridium sporogenes ATCC 19404; assay: Micro-dilution MIC assay, C. sporogenes; assay type: cell-based; details: ATCC19404, 24 h at 37 °C
Description: as §5, §6

[17] = test system: Micrococcus luteus ATCC 10240; assay: Micro-dilution MIC assay, M. luteus; assay type: cell-based; details: ATCC10240, 24 h at 37 °C
Description: as §5, §6

[18] = test system: Candida albicans ATCC 10231; assay: Micro-dilution MIC assay, C. albicans; assay type: cell-based
Description: as §5, §6

[19] = test system: Saccharomyces cerevisiae ATCC 9763; assay: Micro-dilution MIC assay, S. cerevisiae; assay type: cell-based
Description: as §5, §6

[20] = test system: Aspergillus brasiliensis ATCC 16404; assay: Micro-dilution MIC assay, A. brasiliensis; assay type: cell-based; details: A. braziliensis, 48 h at 25 °C
Description: as §5, §6

[21] = Candida albicans, ATCC10231, 48 h at 25 °C, read-out: MIC
[22] = Saccharomyces cerevisiae, ATCC9763, 48 h at 25 °C, read-out: MIC
[23] = Aspergillus brasiliensis, ATCC16404, read-out: MIC

Cc1c(O)cc(C(C)C)c2oc(-c3ccc(Cl)cc3)nc12 [1e, 2-(4-Chlorophenyl)-4-methyl-7-isopropyl-1,3-benzoxazole-5-ol]
IC50 [1]: 79.9 µM
IC50 [2]: 49.5 µM
IC50 [3]: 39.5 µM
IC50 [4]: 42.7 µM
IC50 at 72 h [5]: > 100 µM
inhibition of Akt phosphorylation (western blot) (phospho (Ser 473) Akt [6]; 24 h and 48 h): weak, time and concentration dependent inhibition
inhibition of Akt phosphorylation (western blot) (phospho (Ser 473) Akt [7]; 24 h and 48 h): weak, time and concentration dependent inhibition
IGF1 Receptor β activated form expression (western blot) [8]: no significant changes
IGF1 Receptor β activated form expression (western blot) ([9]; 24 and 48 h treatments): no significant changes

Cc1c(O)cc(C(C)C)c2oc(-c3ccc(F)cc3)nc12 [1f, 2-(4-Fluorophenyl)-4-methyl-7-isopropyl-1,3-benzoxazole-5-ol]
IC50 [1]: 5.82 µM
IC50 [2]: 33.8 µM
IC50 [3]: 9.36 µM
IC50 [4]: 4.13 µM
IC50 at 72 h [5]: 5.54 µM
pAkt levels (western blot) (phospho (Ser 473) Akt [6]; 48 h treatment): significantly decreased pAkt levels
inhibition of Akt phosphorylation (western blot) (phospho (Ser 473) Akt [7]; 24 h treatment): significant effect
pAkt signal (western blot) (phospho (Ser 473) Akt [7]; 48 h treatment): absence of pAkt signal
IGF1 Receptor β activated form expression (western blot) [8]: not detectable
IGF1 Receptor β activated form expression (western blot) ([9]; 24 h treatment): significantly decreased expression
IGF1 Receptor β activated form expression (western blot) ([9]; 48 h treatment): lack of signal

CC1=C(N)C(=O)C(C(C)C)=CC1=O [ATQ, 3-Aminothymoquinone]
MIC [10]: 112 µM (≈ 20 µg/mL)
MIC [11]: 218 µM (≈ 39 µg/mL)
MIC [12]: 218 µM (≈ 39 µg/mL)
MIC [13]: 435 µM (≈ 78 µg/mL)
MIC [14]: 112 µM (≈ 20 µg/mL)
MIC [15]: 218 µM (≈ 39 µg/mL)
MIC [16]: 435 µM (≈ 78 µg/mL)
MIC [17]: 59.7 µM (≈ 10.7 µg/mL)
MIC [18, 21]: 1750 µM (≈ 314 µg/mL)
MIC [19, 22]: 220 µM (≈ 39.4 µg/mL)
MIC [20, 23]: 880 µM (≈ 158 µg/mL)
IC50 [1]: 25.8 µM
IC50 [2]: 30.9 µM
IC50 [3]: 8.26 µM
IC50 [4]: 15.7 µM
IC50 at 72 h [5]: 9.41 µM

NCC[C@H](O)C(=O)N[C@@H]1C[C@H](N)[C@@H](O[C@H]2O[C@H](CN)[C@@H](O)[C@H](O)[C@H]2O)[C@H](O)[C@H]1O[C@H]1O[C@H](CO)[C@@H](O)[C@H](N)[C@H]1O [Amikacin, amikacin]
MIC [10]: 8.54 µM (≈ 5 µg/mL)
MIC [11]: 85.4 µM (≈ 50 µg/mL)
MIC [12]: 11.9 µM (≈ 7 µg/mL)
MIC [13]: 13.7 µM (≈ 8.03 µg/mL)
MIC [14]: 18.8 µM (≈ 11 µg/mL)
MIC [15]: 71.7 µM (≈ 42 µg/mL)
MIC [16]: 25.6 µM (≈ 15 µg/mL)
MIC [17]: 3.42 µM (≈ 2 µg/mL)

C[C@@H]1[C@H](O)[C@@H](C)/C=C/C=C/CC/C=C/C=C/C=C/C=C/C(O[C@H]2O[C@H](C)[C@@H](O)[C@H](N)[C@@H]2O)CC2O[C@](O)(CC(O)C(O)CCC(O)CC(O)CC(O)CC(=O)O[C@H]1C)CC(O)C2C(=O)O (stereo partly drawn) [Nystatin, nystatin]
MIC ([18]; 48 h at 25 °C): 2700 µM (≈ 2500 µg/mL)
MIC ([19]; 48 h at 25 °C): 1350 µM (≈ 1250 µg/mL)
MIC [20]: 1350 µM (≈ 1250 µg/mL)

CC1=CC(=O)C(C(C)C)=CC1=O [TQ, Thymoquinone]
MIC [10]: 29.8 µM (≈ 4.9 µg/mL)
MIC [11]: 59.7 µM (≈ 9.8 µg/mL)
MIC [12]: 29.8 µM (≈ 4.9 µg/mL)
MIC [13]: 59.7 µM (≈ 9.8 µg/mL)
MIC [14]: 29.8 µM (≈ 4.9 µg/mL)
MIC [15]: 59.7 µM (≈ 9.8 µg/mL)
MIC [16]: 122 µM (≈ 20 µg/mL)
MIC [17]: 59.7 µM (≈ 9.8 µg/mL)
MIC [18, 21]: 3810 µM (≈ 626 µg/mL)
MIC [19, 22]: 1900 µM (≈ 312 µg/mL)
MIC [20, 23]: 3810 µM (≈ 626 µg/mL)
IC50 [1]: 40 µM
IC50 [2]: 48.3 µM
IC50 [3]: 24 µM
IC50 [4]: 28.9 µM
IC50 at 72 h [5]: 19.8 µM
